The record followed here is ChEMBL document CHEMBL3991601, “The target landscape of clinical kinase drugs” (Science, 2017).

Molecules are shown by their SMILES. Active and inactive are the calls of the source.

The target in experiment [1] is T1, Serine/threonine-protein kinase Nek2 (Homo sapiens, UniProt P51955).
T1 sequence (P51955 whole entry): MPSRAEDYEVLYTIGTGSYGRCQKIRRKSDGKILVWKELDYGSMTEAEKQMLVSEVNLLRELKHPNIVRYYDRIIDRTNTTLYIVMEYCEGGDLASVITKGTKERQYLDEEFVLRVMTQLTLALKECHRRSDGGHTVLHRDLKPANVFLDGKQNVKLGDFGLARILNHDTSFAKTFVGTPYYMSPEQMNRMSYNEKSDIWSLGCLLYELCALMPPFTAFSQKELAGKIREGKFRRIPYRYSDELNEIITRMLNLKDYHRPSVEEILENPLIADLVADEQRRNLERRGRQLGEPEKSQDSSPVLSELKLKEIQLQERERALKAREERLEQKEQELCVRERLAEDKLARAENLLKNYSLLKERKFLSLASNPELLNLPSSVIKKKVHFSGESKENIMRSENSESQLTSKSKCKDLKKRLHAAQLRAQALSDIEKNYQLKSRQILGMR

In experiment [2] the target is Mitogen-activated protein kinase kinase kinase kinase 4 (Homo sapiens, UniProt O95819).
The target of experiment [3] is T2, Tyrosine--tRNA ligase, cytoplasmic (Homo sapiens, UniProt P54577).
T2 sequence (P54577 whole entry): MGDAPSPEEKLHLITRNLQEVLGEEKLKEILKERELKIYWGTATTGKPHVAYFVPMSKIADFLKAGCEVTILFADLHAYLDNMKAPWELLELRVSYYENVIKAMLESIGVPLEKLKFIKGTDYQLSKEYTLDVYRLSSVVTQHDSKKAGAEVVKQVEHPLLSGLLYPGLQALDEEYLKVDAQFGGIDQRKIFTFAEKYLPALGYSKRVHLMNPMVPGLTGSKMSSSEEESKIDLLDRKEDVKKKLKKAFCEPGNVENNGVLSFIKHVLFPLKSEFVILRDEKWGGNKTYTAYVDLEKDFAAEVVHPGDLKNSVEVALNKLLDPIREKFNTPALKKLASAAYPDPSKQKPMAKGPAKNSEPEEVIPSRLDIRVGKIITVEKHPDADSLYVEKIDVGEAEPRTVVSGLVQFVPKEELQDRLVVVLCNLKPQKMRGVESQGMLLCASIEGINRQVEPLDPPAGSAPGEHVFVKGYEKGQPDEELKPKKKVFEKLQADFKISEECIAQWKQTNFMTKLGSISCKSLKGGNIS

The target in experiment [4] is T3, Serine/threonine-protein kinase NLK (Homo sapiens, UniProt Q9UBE8).
T3 sequence (Q9UBE8 whole entry): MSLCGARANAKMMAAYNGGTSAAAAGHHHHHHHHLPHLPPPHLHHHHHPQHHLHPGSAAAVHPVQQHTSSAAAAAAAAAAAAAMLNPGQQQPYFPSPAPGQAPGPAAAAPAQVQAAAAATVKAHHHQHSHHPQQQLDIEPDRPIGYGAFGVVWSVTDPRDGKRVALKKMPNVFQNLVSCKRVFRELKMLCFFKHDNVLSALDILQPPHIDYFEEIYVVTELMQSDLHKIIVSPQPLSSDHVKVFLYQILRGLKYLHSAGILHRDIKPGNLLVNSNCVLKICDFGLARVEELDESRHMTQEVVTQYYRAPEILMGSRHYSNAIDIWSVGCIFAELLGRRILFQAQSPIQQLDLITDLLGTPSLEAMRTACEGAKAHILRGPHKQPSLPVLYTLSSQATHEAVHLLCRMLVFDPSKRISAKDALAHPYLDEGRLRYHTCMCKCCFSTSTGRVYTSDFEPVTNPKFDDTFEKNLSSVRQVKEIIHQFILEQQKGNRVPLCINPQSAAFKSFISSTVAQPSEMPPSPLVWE

Experiment [5] has as its target T4, Thyroid hormone receptor-associated protein 3 (Homo sapiens, UniProt Q9Y2W1).
T4 sequence (Q9Y2W1 whole entry): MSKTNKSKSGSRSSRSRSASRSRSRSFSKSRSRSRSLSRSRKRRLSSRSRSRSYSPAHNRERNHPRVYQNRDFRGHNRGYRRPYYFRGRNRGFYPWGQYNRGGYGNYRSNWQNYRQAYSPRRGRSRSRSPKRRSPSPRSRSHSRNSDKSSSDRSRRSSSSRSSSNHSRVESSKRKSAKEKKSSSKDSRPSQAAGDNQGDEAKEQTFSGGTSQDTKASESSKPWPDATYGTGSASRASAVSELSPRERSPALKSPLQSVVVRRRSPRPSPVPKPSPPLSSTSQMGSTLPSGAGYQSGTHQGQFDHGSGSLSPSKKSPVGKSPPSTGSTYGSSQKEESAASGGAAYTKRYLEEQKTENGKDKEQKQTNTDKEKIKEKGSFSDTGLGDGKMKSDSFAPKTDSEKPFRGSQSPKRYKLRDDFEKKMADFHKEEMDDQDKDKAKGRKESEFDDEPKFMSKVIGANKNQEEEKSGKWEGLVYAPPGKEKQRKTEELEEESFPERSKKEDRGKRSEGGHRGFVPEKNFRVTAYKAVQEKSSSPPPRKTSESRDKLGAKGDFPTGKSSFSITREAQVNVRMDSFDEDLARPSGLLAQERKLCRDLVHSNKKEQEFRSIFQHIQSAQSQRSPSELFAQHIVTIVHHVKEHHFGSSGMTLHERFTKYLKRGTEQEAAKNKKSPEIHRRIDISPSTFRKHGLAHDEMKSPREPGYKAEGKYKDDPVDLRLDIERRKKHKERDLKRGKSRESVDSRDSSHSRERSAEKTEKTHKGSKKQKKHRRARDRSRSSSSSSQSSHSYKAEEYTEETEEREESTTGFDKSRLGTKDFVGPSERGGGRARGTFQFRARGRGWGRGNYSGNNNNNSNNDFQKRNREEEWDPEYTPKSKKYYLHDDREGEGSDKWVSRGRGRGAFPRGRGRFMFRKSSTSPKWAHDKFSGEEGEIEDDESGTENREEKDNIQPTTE
Further: in the data inactive means no Kd found up to 30 µM.

Chain of Mitogen-activated protein kinase kinase kinase kinase 4 (O95819 whole entry): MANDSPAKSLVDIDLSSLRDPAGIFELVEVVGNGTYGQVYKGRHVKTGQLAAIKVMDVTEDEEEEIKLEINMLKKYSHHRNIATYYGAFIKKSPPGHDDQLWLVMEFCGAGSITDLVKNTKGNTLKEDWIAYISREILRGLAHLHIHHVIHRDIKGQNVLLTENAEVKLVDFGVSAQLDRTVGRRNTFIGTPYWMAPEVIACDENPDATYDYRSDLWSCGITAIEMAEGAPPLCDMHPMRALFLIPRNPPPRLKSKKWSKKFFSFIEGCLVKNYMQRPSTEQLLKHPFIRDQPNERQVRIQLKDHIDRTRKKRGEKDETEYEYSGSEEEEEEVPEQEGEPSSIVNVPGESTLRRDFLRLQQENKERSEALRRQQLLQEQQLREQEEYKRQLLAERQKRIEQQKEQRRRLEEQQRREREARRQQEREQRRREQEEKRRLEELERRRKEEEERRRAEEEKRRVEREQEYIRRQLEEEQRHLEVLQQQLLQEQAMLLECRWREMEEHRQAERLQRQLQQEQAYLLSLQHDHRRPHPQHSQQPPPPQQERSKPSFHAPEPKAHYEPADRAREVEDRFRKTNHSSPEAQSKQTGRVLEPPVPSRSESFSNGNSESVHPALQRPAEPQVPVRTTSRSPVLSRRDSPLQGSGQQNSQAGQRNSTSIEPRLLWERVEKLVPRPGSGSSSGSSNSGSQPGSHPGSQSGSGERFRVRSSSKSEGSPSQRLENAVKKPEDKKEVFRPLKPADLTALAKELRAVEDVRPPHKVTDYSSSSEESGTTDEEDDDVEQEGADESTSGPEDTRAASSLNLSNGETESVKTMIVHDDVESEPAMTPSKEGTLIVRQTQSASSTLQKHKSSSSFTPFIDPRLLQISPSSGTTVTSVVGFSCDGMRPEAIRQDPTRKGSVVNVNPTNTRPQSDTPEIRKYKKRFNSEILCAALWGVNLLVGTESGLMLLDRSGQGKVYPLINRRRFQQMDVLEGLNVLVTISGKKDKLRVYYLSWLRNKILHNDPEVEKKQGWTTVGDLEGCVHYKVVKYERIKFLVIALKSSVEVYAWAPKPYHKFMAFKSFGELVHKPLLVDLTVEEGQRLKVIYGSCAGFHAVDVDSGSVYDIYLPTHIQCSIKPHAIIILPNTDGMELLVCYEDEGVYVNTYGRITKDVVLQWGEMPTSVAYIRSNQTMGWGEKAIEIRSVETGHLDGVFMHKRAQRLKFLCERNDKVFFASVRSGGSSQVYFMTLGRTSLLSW

Take `C[C@@H](Oc1cc(C(=O)Nc2ccc(C(=O)N3CCN(C)CC3)cc2)nnc1N)c1c(Cl)ccc(F)c1Cl`: the Kd in experiment [1], in experiment [2], in experiment [3] and in experiment [4] was > 30 µM (inactive) throughout.

Consider `CC(=O)c1cnc2ccc(-c3cc(Cl)c(O)c(Cl)c3)nc2c1N[C@H]1CC[C@H](CN(C)C)CC1`, for which the Kd (commonly a measure of binding affinity in units of concentration) was > 30 µM (inactive) in experiment [1], 0.088 µM in experiment [2], > 30 µM (inactive) in experiment [3] and 0.024 µM (active) in experiment [4].

As for `Nc1ncnc2c1c(-c1cccc(OCc3ccccc3)c1)cn2[C@H]1C[C@@H](CN2CCC2)C1` [AEW-541], the Kd in experiment [1], in experiment [2], in experiment [3] and in experiment [4] was > 30 µM (inactive) in each case.

In the case of `COc1cc(Nc2ncc3c(n2)-c2ccc(Cl)cc2C(c2c(F)cccc2OC)=NC3)ccc1C(=O)O` [ALISERTIB], the Kd in experiment [5], in experiment [3] and in experiment [4] was > 30 µM (inactive) in each case.

`C=CC(=O)Nc1cc2c(Nc3ccc(F)c(Cl)c3)ncnc2cc1C#CC(C)(C)N1CCN(C)CC1` [AV-412 FREE BASE]: the Kd in experiment [1], in experiment [2], in experiment [3] and in experiment [4] was > 30 µM (inactive) throughout.

As to `CNC(=O)c1ccccc1Sc1ccc2c(/C=C/c3ccccn3)n[nH]c2c1` [AXITINIB], the Kd in experiment [5] and in experiment [3] was > 30 µM (inactive) throughout.

As to `COc1cc([C@@H]2c3cc4c(cc3[C@H](O)[C@H]3COC(=O)[C@@H]23)OCO4)cc(OC)c1OC` [AXL-1717], the Kd in experiment [1], in experiment [2], in experiment [3] and in experiment [4] was > 30 µM (inactive) each time.

Regarding `COc1c(OCCCN2CCOCC2)ccc2c1N=C(NC(=O)c1cnc(N)nc1)N1CCN=C21` [COPANLISIB], the Kd in experiment [1], in experiment [2], in experiment [3] and in experiment [4] was > 30 µM (inactive) throughout.

With `Cn1cc(C2=C(c3cn(C4CCN(Cc5ccccn5)CC4)c4ccccc34)C(=O)NC2=O)c2ccccc21` [ENZASTAURIN], the Kd in experiment [3] is > 30 µM (inactive).

As for `Cc1nc2cc(-n3ncc(C(=O)c4cc5ccccc5[nH]4)c3N)ccc2[nH]1` [FGFR INHIBITOR DEBIO 1347], the Kd in experiment [1], in experiment [2], in experiment [3] and in experiment [4] was > 30 µM (inactive) in each case.

On to `O=C(Nc1nc2cccc(-c3ccc(CN4CCS(=O)(=O)CC4)cc3)n2n1)C1CC1` [FILGOTINIB], for which the Kd in experiment [1], in experiment [2], in experiment [3] and in experiment [4] was > 30 µM (inactive) in each case.

`Cc1cccc(-c2nn3c(c2-c2ccnc4ccc(C(N)=O)cc24)CCC3)n1` [GALUNISERTIB]: the Kd is > 30 µM (inactive) in experiment [1], 1.69 µM (active) in experiment [2], > 30 µM (inactive) in experiment [3] and > 30 µM (inactive) in experiment [4].

With `C[C@@H](Oc1cc(-n2cnc3ccc(CN4CCN(C)CC4)cc32)sc1C(N)=O)c1ccccc1C(F)(F)F` [GSK-461364], the Kd in experiment [5] and in experiment [3] was > 30 µM (inactive) throughout.

Turning to `CCn1cc(-c2ccnc3[nH]c(-c4cccc(CN(C)C)c4)cc23)c(-c2ccc(NC(=O)N(C)C)cc2)n1` [GSK-1070916], the Kd in experiment [1], in experiment [3] and in experiment [4] was > 30 µM (inactive) in each case.

Take `CNC(=O)c1cccc2cc(Oc3ccnc4cc(OCC5(N)CC5)c(OC)cc34)ccc12` [LUCITANIB]: the Kd in experiment [1], in experiment [2], in experiment [3] and in experiment [4] was > 30 µM (inactive) each time.

Take `CNC(=O)c1nn(C)c2c1C(C)(C)Cc1cnc(Nc3ccc(N4CCN(C)CC4)cc3)nc1-2` [MILCICLIB]: the Kd in experiment [1], in experiment [2], in experiment [3] and in experiment [4] was > 30 µM (inactive) in each case.

As for `CN(C[C@@H]1COCCO1)S(=O)(=O)Nc1ccc2ccc3ncc(-c4cnn(C)c4)cc3c(=O)c2c1` [MK-2461], the Kd in experiment [1], in experiment [2], in experiment [3] and in experiment [4] was > 30 µM (inactive) throughout.

As for `COc1ncc(-c2ccc3nccc(-c4ccnnc4)c3c2)cc1NS(=O)(=O)c1ccc(F)cc1F` [OMIPALISIB], the Kd in experiment [1], in experiment [2], in experiment [3] and in experiment [4] was > 30 µM (inactive) each time.

Regarding `Cc1[nH]c(/C=C2\C(=O)Nc3ccccc32)c(C)c1CCC(=O)O` [ORANTINIB], the Kd in experiment [5], in experiment [3] and in experiment [4] was > 30 µM (inactive) in each case.

As to `NC(=O)c1c(OCc2c(F)cc(Br)cc2F)nsc1NC(=O)NCCCCN1CCCC1` [OSI-632], the Kd in experiment [5], in experiment [3] and in experiment [4] was > 30 µM (inactive) each time.

For the compound `O=C(NOCCO)c1cc(CN2OCCCC2=O)c(F)c(F)c1Nc1ccc(I)cc1F` [RO-4987655], the Kd in experiment [3] was > 30 µM (inactive).

Take `N#CC[C@H](C1CCCC1)n1cc(-c2ncnc3[nH]ccc23)cn1` [RUXOLITINIB]: the Kd in experiment [5] and in experiment [3] was > 30 µM (inactive) in each case.

Turning to `CCS(=O)(=O)c1cccc(-c2cc(C(=O)NC3CCN(C)CC3)c(C)c3[nH]c4ncc(C)cc4c23)c1` [TAK-901], the Kd in experiment [1], in experiment [2], in experiment [3] and in experiment [4] was > 30 µM (inactive) throughout.

With `Cn1ncc(Cl)c1-c1cc(C(=O)N[C@H](CN)Cc2ccc(F)c(F)c2)oc1Cl` [UPROSERTIB], the Kd in experiment [1], in experiment [2], in experiment [3] and in experiment [4] was > 30 µM (inactive) throughout.

Consider `C[C@@H](N)c1ccc(C(=O)Nc2ccnc3[nH]ccc23)cc1` [Y-39983], for which the Kd in experiment [1] was > 30 µM (inactive); in experiment [2], 0.946 µM (active); in experiment [3], > 30 µM (inactive); in experiment [4] it was > 30 µM (inactive).
